Test results taken from patent US6331546A, “Use of 2-amino-3,4-dihydroquinazolines for the production of a medicament for the treatment or prophylaxis of illnesses caused by ischemic conditions” (Aventis Pharma Deutschland GmbH, priority 1999, dated 2001).
Structures can show the parent of a compound that is named as a salt.

The compounds below were run against T1, Na+/H+ exchanger of rabbit erythrocytes (Oryctolagus cuniculus, UniProt P23791) (assay: Inhibition of the Na+/H+ exchanger of rabbit erythrocytes (amiloride-sensitive sodium influx, flame photometry)). Conditions: hyperosmolar salt/sucrose medium, pH 7.4, 37° C.
T1 construct: endogenous in cells; host or cells: erythrocytes in fresh heparinised blood of White New Zealand rabbits (Ivanovas)
T1 sequence (P23791 whole entry): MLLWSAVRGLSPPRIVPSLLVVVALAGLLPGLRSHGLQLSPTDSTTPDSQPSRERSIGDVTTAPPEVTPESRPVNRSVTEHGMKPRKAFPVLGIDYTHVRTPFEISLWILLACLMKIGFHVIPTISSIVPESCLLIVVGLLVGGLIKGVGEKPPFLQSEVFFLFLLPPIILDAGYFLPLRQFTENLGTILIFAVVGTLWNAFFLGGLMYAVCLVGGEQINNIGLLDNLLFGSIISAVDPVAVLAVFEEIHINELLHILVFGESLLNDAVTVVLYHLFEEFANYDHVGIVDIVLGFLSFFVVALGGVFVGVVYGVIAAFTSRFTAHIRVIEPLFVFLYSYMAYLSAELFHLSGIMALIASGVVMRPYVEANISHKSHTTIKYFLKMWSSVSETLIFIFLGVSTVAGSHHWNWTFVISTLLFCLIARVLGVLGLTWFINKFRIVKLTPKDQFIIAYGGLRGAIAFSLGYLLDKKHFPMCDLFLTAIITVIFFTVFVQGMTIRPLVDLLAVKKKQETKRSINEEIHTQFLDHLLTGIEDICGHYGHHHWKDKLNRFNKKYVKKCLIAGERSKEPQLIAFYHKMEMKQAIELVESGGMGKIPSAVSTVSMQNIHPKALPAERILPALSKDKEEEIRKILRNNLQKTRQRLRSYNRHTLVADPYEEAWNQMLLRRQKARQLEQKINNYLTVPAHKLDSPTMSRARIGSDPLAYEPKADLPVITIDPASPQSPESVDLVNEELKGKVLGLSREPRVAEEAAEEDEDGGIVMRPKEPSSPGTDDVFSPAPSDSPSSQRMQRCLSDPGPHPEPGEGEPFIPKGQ
Assay type: cell-based
Excerpt: Inhibition of the Na^+ /H^+ Exchanger of Rabbit Erythrocytes White New Zealand rabbits (Ivanovas) received a standard diet with 2% cholesterol for six weeks in order to activate the Na^+ /H^+ exchange and thus to be able to determine the Na^+ influx into the erythrocytes via Na^+ /H^+ exchange by flame photometry. The blood was removed from the auricular arteries and rendered uncoagulable by means of 25 IU of potassium heparin. A part of each sample was used for the duplicate determination of the hematocrit by centrifugation. Aliquots of 100 μl in each case served for the measurement of the Na^+ starting content of the erythrocytes. In order to determine the amiloride-sensitive sodium influx, 100 μl of each blood sample in 5 ml in each case of a hyperosmolar salt/sucrose medium (mmol/I: 140 NaCl, 3 KCl, 150 sucrose, 0.1 ouabain, 20 tris-hydroxymethyl-aminomethane) were incubated at pH 7.4 and 37° C. The erythrocytes were then washed three times with ice-cold MgCl^2 /ouabain solution (mmol/I: 112 MgCl2, 0.1 ouabain) and hemolyzed in 2.0 ml of distilled water. The intracellular sodium content was determined by flame photometry. The Na^+ net influx was calculated from the difference between sodium starting values and the sodium content of the erythrocytes after incubation. The amiloride-inhibitable sodium influx followed from the difference in the sodium content of the erythrocytes after incubation with and without amiloride 3×10^-4 mol/I. The procedure was the same in the case of the compounds according to the invention.

**Q.** How did the IC50 turn out when `COc1ccc(C2NC(N)=Nc3ccccc32)cc1` (stereo not drawn) [Example 1, 2-Amino-4-(4-methoxyphenyl)-3,4-dihydroquinazoline Hydrochloride] was run?
**A.** 3.4 µM

**Q.** `COc1ccc(C2NC(N)=Nc3ccccc32)cc1OC` (stereo not drawn) [Example 2, 2-Amino-4-(3,4-dimethoxyphenyl)-3,4-dihydroquinazolinium Fumarate] was tested. Which IC50 did it give?
**A.** 3.2 µM

**Q.** With `COc1ccc(C2c3ccccc3N=C(N)N2C)cc1OC` (stereo not drawn) [Example 3, 2-Amino4-(3,4-dimethoxyphenyl)-3-methyl-3,4-dihydro-quinazolinium Fumarate] as the compound, how does the IC50 read?
**A.** 4.1 µM
